Test results reported in US7498127B2, “Method of screening cell growth inhibitor and cell growth inhibitor” (priority 2002, dated 2009).

Tested on: nuclear export of the PLZF protein
Test: Inhibitory effect against the nuclear export of the PLZF protein by processing (CFP-PLZF in nucleus, TPA treatment)
Type: cell-based, Human
Details: HT1080/HB-EGF transfected with CFP-PLZF; 100 nM TPA 60 min in copresence of LMB 10 ng/ml; FIG. 7
Method: Each transfectant containing CFP-PLZF was cultured for 24 hours, and then 100 nM TPA was added thereto for treatment for 60 min. The number (N) of the cells expressing CFP-PLZF in the nucleus and the number (C) of the cells in which CFP-PLZF has leaked into the cytoplasm are counted under observation with a fluorescent microscope before and after the TPA treatment, and the ratio of the number (N) of the cells expressing CFP-PLZF in the nucleus to the total number (N+C) of the cells expressing CFP-PLZF is calculated and thus obtained (N/(N+C)×100 (%)). The wild-type HT1080 cells (the above described 1)) were used as the control for comparison.
HT1080/HB-EGF to which CFP-PLZF had been transfected (see Test Example 3) was cultured for 24 hours, and then treated with 100 nM TPA in the copresence of LMB (10 ng/ml) for 60 min. The number of the cells expressing CFP-PLZF in the nucleus was measured with a microscope before and after the TPA treatment and the ratio was calculated.
As the control, the ratio of the number of the cells expressing CFP-PLZF before and after the TPA treatment when the TPA treatment was performed without adding LMB was obtained, and compared with the ratio when LMB was added. Thus, the compound LMB to be tested was evaluated. • 3. Test Results

**Q.** How did the “inhibition of the nuclear export of the PLZF protein (ratio of cells expressing CFP-PLZF in the nucleus before and after TPA treatment)” value turn out when `CCC(=C/[C@H](C)C/C=C/C(C)=C/[C@@H](C)C(=O)[C@@H](C)[C@H](O)[C@@H](C)C/C(C)=C/C(=O)O)/C=C/[C@@H]1OC(=O)C=C[C@@H]1C` [LMB, reptomycin B] was run?
**A.** inhibited the nuclear export of the PLZF protein
